Measured values reported in US8246966B2, “Trypanosome microsome system and uses thereof” (priority 2006, dated 2012).
pIC50: −log10 of the molar value. Entries after “also recorded” stand apart in the source; their conditions may differ. Where two headings read alike, the source gives them in different places.

Assays:
[1] = test system: Blood stream form T. brucei CA427; test: Trypanocidal activity against cultured blood stream form T. brucei (Example 2); assay type: cell-based, Trypanosoma brucei; settings: for pIC50: read-out: concentration at which fifty percent of parasites were killed (IC50)
Protocol: Blood stream form T. brucei CA427 were grown in HMI-9 media to the cell density of 10^6. The cells were then transferred to 96 well plates with the addition of different concentrations of MAL3-101, MAL3-51, CJ-21,058 or equisetin. In controls, DMSO was added. Cell density was calculated at the end of 24 hours, and the graph was plotted.
Cell culture. Blood stream form T. brucei CA427 was cultured in HMI-9 medium (Hirumi and Hirumi, 1994, Parasitol Today; 10:80-84) to a maximum density of 10^6/ml. For use in drug sensitivity studies, cells were seeded at […], and one hundred microliters added to each well of a 96-well plate, with or without test compounds at stated concentrations, as discussed in Brief Descriptions of FIGS. 1-4. In controls, DMSO, the solvent for the compounds, was added. Cells were counted after 24 or 48 hours, using a hemocytometer, and the data graphed. All experiments were performed in triplicates.

[2] = test system: HeLa cells; test: HeLa cell viability, propidium iodide exclusion assay; assay type: cell-based, human
Protocol: HeLa cells, treated with DMSO, MAL3-101, MAL3-51, CJ-21,058 or equisetin, were subject to a propidium iodide viability assay and analyzed by flow cytometry.
HeLa cell line was maintained in RPMI-1640 supplemented with 10% bovine serum, 100 U/ml penicillin/streptomycin, and 2 mM L-glutamine at 37° C. in 5% CO2.
HeLa cell viability assays. Propidium iodide exclusion assay (reviewed in Steff et al., 2001, Cytometry; 45(4):237-43 and Wigg et al., 2003, Anal Biochem; 317(1):19-25) was used to determine HeLa cell viability after drug treatment. Cells were plated at 1×10^4 cells per well (96 well plate) with or without addition of test compounds for the stated time periods, as described for FIGS. 1-4. […] Adherent cells were rinsed with phosphate buffered saline (PBS), trypsinized (37° C. for 5 minutes), pelleted (2,000 g, 2 minutes), resuspended in PBS (500 μl) containing propidium iodide (1 μg/ml), DAPI [4′-6-Diamidino-2-phenylindole] (5 μg/ml) and analyzed by flow cytometry on a Dakocytomation CyAn without gating. Single fluorophore controls were acquired prior to the collection of the experimental data.

[3] = test system: T. brucei microsomes (TbRM); test: Import of full length VSG—117 into TbRM with T. brucei cytosol (Example 10); assay type: biochemical, Trypanosoma brucei
Protocol: FIGS. 18A and 18B. MAL3-101, equisetin, and CJ-21,058 inhibit VSG translocation into TbRM. FIG. 18A presents the protocol used for import of VSG—117. In FIG. 18B, VSG—117 mRNA was translated in rabbit reticulocyte lysate with 1.5 equivalents T. brucei cytosol pretreated with MAL3-101 (3 μM), MAL3-51 (10 μM), CJ-21,058 (20 μM) or equisetin (50 μM)) for 60 minutes. The reaction mixtures received cycloheximide (50 μg/ml, final concentration) and were incubated with TbRM (one equivalent). After incubation at 37° C. for 60 minutes, reaction mixtures were transferred to an ice-water bath and treated with proteinase K (30 μg/ml, final concentration) for 60 minutes. Proteins were resolved by SDS-PAGE and detected by phosphorimaging. Lane 1 is VSG—117 incubated with TbRM; lane 2 is VSG—117 digested with proteinase K after incubation with TbRM; lane 3 is VSG—117 incubated with MAL3-101 in the presence of TbRM; lane 4 is VSG—117 and TbRM incubated with MAL3-101 and then digested with proteinase K; lane 5 is VSG—117 incubated with MAL3-51 and TbRM; lane 6 is VSG—117 incubated with TbRM in the presence of equisetin; lane 7 is VSG—117 incubated with ThRM; lane 8 is VSG—117 incubated with equisetin and digested with proteinase K; lane 9 is VSG—117 incubated with CJ-21,058 and TbRM; lane 10 is VSG—117 incubated with TbRM and CJ-21,058 and digested with proteinase K. For quantitation, each proteasedigested sample was compared to a control experiment containing the drug but without protease addition. Thus, lane 2 is compared with lane 1 while lane 4 is compared to lane 3, and so on.
Protein Import Into TbRM. Two μg of RNA encoding VSG—117 (or VSG_MVAT7) was translated in 30 μl of a reaction mixture containing 15 μl rabbit reticulocyte lysate, 60 μM amino acid mixture (-Met, -Cys), and 2.4 μCi [^35S]Promix. […] The gels were dried, and radioactive polypeptides were detected with a phosphorimager (Personal Molecular Imager FX, (BioRad). Data were quantified with QuantityOne software (BioRad), and graphs were plotted with DeltaGraph (Red Rock software). […]

Structure (SMILES)	pIC50 ([1]; cultured T. brucei)	effect on human HeLa cells [2]	inhibition of import of VSG—117 into TbRM compared to DMSO control ([3]; CJ-21,058 (20 μM in FIG. 18B legend)) [%]	trypanocidal activity (in words) [1]	concentration at which one hundred percent of parasites were killed (IC100) ([1]; cultured T. brucei) [nM]	VSG—117 protected from proteinase K ([3]; MAL3-101 present (3 μM in FIG. 18B legend), DMSO approximately 80%) [%]	effect on human HeLa cells ([2]; concentrations that killed one hundred percent T. brucei (IC100))	HeLa cell viability ([2]; equisetin 26 μM)	inhibition of VSG—117 translocation into TbRM ([3]; equisetin (50 μM in FIG. 18B legend)) [%]
C/C=C/C1C(C)=CC2CC(C)CCC2C1(C)/C(O)=C1/C(=O)C(CO)N(C)C1=O (centres unmarked) [CJ-21,058]	5.15	little effect	70						
CCCCCCN(C(=O)CCCCCN1C(=O)NC(c2ccc(-c3ccccc3)cc2)C(C(=O)OCc2ccccc2)=C1C)C(C(=O)NCCCC)c1ccc(OCC(=O)OC)c(C(=O)OC)c1 (centres unmarked) [MAL3-101]	6.90			killed T. brucei at sub-micromolar level	500	13			
C/C=C/[C@@H]1C=C[C@@H]2C[C@H](C)CC[C@H]2[C@]1(C)/C(O)=C1/C(=O)[C@H](CO)N(C)C1=O [equisetin]	5.48						little effect; also recorded: did not have discernible effects	neither CJ-21,058 (20 μM) nor equisetin (26 μM) decreased viability of HeLa cells	95
